From US5622962A, “5α-reductase inhibitors” (priority 1995, dated 1997)
Read-outs that look alike come from different tables or passages of the source.

How the values were obtained:
[1] = target: T1, Type II 5α-Reductase from Human Prostate (Homo sapiens, UniProt P31213); assay: Human Type II 5α-reductase assay (conversion of [3H]-testosterone to 5α-reduced metabolites); type: biochemical
T1 construct: The same procedure as above was used for preparations using tissue from prostate surgery; from tissue; host or cells: human prostate tissue from surgery, homogenate, 100,000×g pellet
T1 sequence (P31213 1-254): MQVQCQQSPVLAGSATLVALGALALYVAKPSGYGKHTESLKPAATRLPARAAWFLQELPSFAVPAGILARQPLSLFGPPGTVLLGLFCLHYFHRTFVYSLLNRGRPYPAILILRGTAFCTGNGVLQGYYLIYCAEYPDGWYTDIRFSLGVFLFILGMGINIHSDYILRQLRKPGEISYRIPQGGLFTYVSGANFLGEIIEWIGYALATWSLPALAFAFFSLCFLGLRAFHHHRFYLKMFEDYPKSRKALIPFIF

[2] = target: T2, Type I 5α-Reductase from Human Scalp (Homo sapiens, UniProt P18405); assay: Human Type I 5α-reductase assay (conversion of [3H]-testosterone to 5α-reduced metabolites); type: biochemical
T2 construct: Scalp punch biopsies from graft recipient sites were obtained from human hair transplant procedures; from tissue; host or cells: human scalp punch biopsies (hair transplant graft recipient sites), homogenate, 100,000×g pellet
T2 sequence (P18405 1-259): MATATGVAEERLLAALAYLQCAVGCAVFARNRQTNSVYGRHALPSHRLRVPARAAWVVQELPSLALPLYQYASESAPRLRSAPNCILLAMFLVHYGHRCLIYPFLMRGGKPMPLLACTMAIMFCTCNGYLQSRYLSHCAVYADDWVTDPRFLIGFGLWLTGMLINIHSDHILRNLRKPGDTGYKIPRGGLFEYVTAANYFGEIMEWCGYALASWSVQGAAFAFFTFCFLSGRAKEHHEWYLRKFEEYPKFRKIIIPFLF

[3] = pH 5.5, 0.3 μM, sodium acetate pH 5.5, 25°, 30 min, compared to control reaction mixtures, read-out: percent inhibition of Type II AR
[4] = pH 7.5, 0.3 μM, 50 nM [3H]-testosterone, pH 7.5, 25°, 180 min, compared to control reaction mixtures, read-out: percent inhibition of Type I AR

inhibition at 0.3 µM [1, 3]	inhibition at 0.3 µM [2, 4]	percent inhibition of Type I AR ([2]; 0.3 μM, 50 nM [3H]-testosterone, pH 7.5, 25°, 180 min, compared to control reaction mixtures)	Compound	inhibition at 0.3 µM ([1]; pH 5.5, read-out: percent inhibition of Type II AR)	inhibition at 0.3 µM ([2]; pH 7.5, read-out: percent inhibition of Type I AR)
34%	8%	–	CN1C(=O)CC[C@]2(C)c3ccc(-c4cc(C(F)(F)F)nc5c(C(F)(F)F)cccc45)cc3CC[C@@H]12 [Example 203, (+)-(4aR)-(10bR)-4-methyl-8-[2,8-bis(trifluoromethyl)-4-quinolinyl]-10b-methyl-1,2,3,4,4a,5,6,10b-octahydrobenzo[f]-quinolin-3-one]	–	–
39%	34%	–	CN1C(=O)CC[C@]2(C)c3ccc(-c4ccc(S(C)(=O)=O)cc4)cc3CC[C@@H]12 [Example 204, (+)-(4aR)-(10bR)-4-methyl-8-(4-methylsulfonylphenyl)-10b-methyl-1,2,3,4,4a,5,6,10b-octahydrobenzo[f]quinolin-3-one]	–	–
37%	100%	–	CN1C(=O)CC[C@]2(C)c3ccc(-c4c(F)c(F)c(F)c(F)c4F)cc3CC[C@@H]12 [Example 205, (+)-(4aR)-(10bR)-4-methyl-8-(2,3,4,5,6-pentafluorophenyl)-10b-methyl-1,2,3,4,4a,5,6,10b-octahydrobenzo[f]quinolin-3-one]	–	–
32%	97%	100%	CN1C(=O)CC[C@]2(C)c3ccc(-c4cc(F)c(F)c(F)c4)cc3CC[C@@H]12 [Example 206, (+)-(4aR)-(10bR)-4-methyl-8-(3,4,5-trifluorophenyl)-10b-methyl-1,2,3,4,4a,5,6,10b-octahydrobenzo[f]quinolin-3-one]	–	–
16%	45%	–	CN1C(=O)CC[C@]2(C)c3ccc(-c4ccc5c(c4)CCC5=O)cc3CC[C@@H]12 [Example 207, (+)-(4aR)-(10bR)-4-methyl-8-(1-oxo-5-indanyl)-10b-methyl-1,2,3,4,4a,5,6,10b-octahydrobenzo[f]quinolin-3-one]	–	–
10%	77%	–	CN1C(=O)CC[C@]2(C)c3ccc(-c4cccc(C(F)(F)F)c4F)cc3CC[C@@H]12 [Example 208, (+)-(4aR)-(10bR)-4-methyl-8-(2-fluoro-3-trifluoromethyl-phenyl)-10b-methyl-1,2,3,4,4a,5,6,10b-octahydrobenzo[f]-quinolin-3-one]	–	–
11%	24%	–	CN1C(=O)CC[C@]2(C)c3ccc(-c4cccc(C(=O)NC5CCN(Cc6ccccc6)CC5)c4)cc3CC[C@@H]12 [Example 209, (+)-(4aR)-(10bR)-4-methyl-8-(3-[1-benzyl-4-piperidinylcarboxamido]phenyl)-10b-methyl-1,2,3,4,4a,5,6,10b-octahydrobenzo[f]quinolin-3-one]	–	–
–	–	–	CN1C(=O)CC[C@]2(C)c3ccc(-c4ccc(C(F)(F)F)cc4F)cc3CC[C@@H]12 [Example 210, (+)-(4aR)-(10bR)-4-methyl-8-(2-fluoro-4-trifluoromethylphenyl)-10b-methyl-1,2,3,4,4a,5,6,10b-octahydrobenzo[f]-quinolin-3-one]	38%	81%
29%	70%	–	CN1C(=O)CC[C@]2(C)c3ccc(-c4cc(C(F)(F)F)ccc4F)cc3CC[C@@H]12 [Example 211, (+)-(4aR)-(10bR)-4-methyl-8-(2-fluoro-5-trifluoromethylphenyl)-10b-methyl-1,2,3,4,4a,5,6,10b-octahydrobenzo[f]-quinolin-3-one quinolin-3-one]	–	–
31%	73%	–	CSc1cccc(-c2ccc3c(c2)CC[C@H]2N(C)C(=O)CC[C@]32C)c1 [Example 212, (+)-(4aR)-(10bR)-4-methyl-8-(3-methylthiophenyl)-10b-methyl-1,2,3,4,4a,5,6,10b-octahydrobenzo[f]quinolin-3-one]	–	–
28%	64%	–	CN1C(=O)CC[C@]2(C)c3ccc(-c4ccc(C(N)=O)cc4)cc3CC[C@@H]12 [Example 213, (+)-(4aR)-(10bR)-4-methyl-8-(4-carboxamidophenyl)-10b-methyl-1,2,3,4,4a,5,6,10b-octahydrobenzo[f]quinolin-3-one]	–	–
29%	26%	–	CCN(CC)C(=O)c1cc2cc(-c3ccc4c(c3)CC[C@H]3N(C)C(=O)CC[C@]43C)ccc2oc1=O [Example 214, (+)-(4aR)-(10bR)-4-methyl-8-[2-oxo-3-(N,N-diethylcarboxamido)-1-2H-benzopyran-6-yl)-10b-methyl-1,2,3,4,4a,5,6,10b-octahydrobenzo[f]quinolin-3-one]	–	–
42%	84%	–	CN1C(=O)CC[C@]2(C)c3ccc(-c4ccc(NC(=O)C(C)(C)C)nc4)cc3CC[C@@H]12 [Example 215, (+)-(4aR)-(10bR)-4-methyl-8-[2-(t-butylcarbonylamino)-5-pyridinyl]-10b-methyl-1,2,3,4,4a,5,6,10b-octahydrobenzo[f]-quinolin-3-one]	–	–
24%	78%	–	CN1C(=O)CC[C@]2(C)c3ccc(-c4cc(F)cc(C(F)(F)F)c4)cc3CC[C@@H]12 [Example 216, (+)-(4aR)-(10bR)-4-methyl-8-(3-fluoro-5-trifluoromethylphenyl)-10b-methyl-1,2,3,4,4a,5,6,10b-octahydrobenzo[f]-quinolin-3-one]	–	–
33%	93%	–	CN1C(=O)CC[C@]2(C)c3ccc(-c4ccc([N+](=O)[O-])s4)cc3CC[C@@H]12 [Example 217, (+)-(4aR)-(10bR)-4-methyl-8-(5-nitro-2-thienyl)-10b-methyl-1,2,3,4,4a,5,6,10b-octahydrobenzo[f]quinolin-3-one]	–	–
35%	84%	–	CN1C(=O)CC[C@]2(C)c3ccc(-c4ccc(Cl)s4)cc3CC[C@@H]12 [Example 218, (+)-(4aR)-(10bR)-4-methyl-8-(5-chloro-2-thienyl)-10b-methyl-1,2,3,4,4a,5,6,10b-octahydrobenzo[f]quinolin-3-one]	–	–
30%	91%	–	CN1C(=O)CC[C@]2(C)c3ccc(-c4ccc(Cl)c(F)c4)cc3CC[C@@H]12 [Example 219, (+)-(4aR)-(10bR)-4-methyl-8-(4-chloro-3-fluorophenyl)-10b-methyl-1,2,3,4,4a,5,6,10b-octahydrobenzo[f]quinolin-3-one]	–	–
26%	67%	–	CN1C(=O)CC[C@]2(C)c3ccc(-c4ccc(S(N)(=O)=O)cc4)cc3CC[C@@H]12 [Example 220, (+)-(4aR)-(10bR)-4-methyl-8-(4-sulfonamidophenyl)-10b-methyl-1,2,3,4,4a,5,6,10b-octahydrobenzo[f]quinolin-3-one]	–	–
26%	95%	–	CN1C(=O)CC[C@]2(C)c3ccc(-c4ccc(C(=O)CCCCl)cc4)cc3CC[C@@H]12 [Example 221, (+)-(4aR)-(10bR)-4-methyl-8-[4-(4-chlorobutyryl)phenyl]-10b-methyl-1,2,3,4,4a,5,6,10b-octahydrobenzo[f]quinolin-3-one]	–	–
24%	36%	–	CN1C(=O)CC[C@]2(C)c3ccc(-c4ccc5c(c4)C(=O)C(=O)N5)cc3CC[C@@H]12 [Example 223, (+)-(4aR)-(10bR)-4-methyl-8-(2,3-dioxo-5-indolinyl)-10b-methyl-1,2,3,4,4a,5,6,10b-octahydrobenzo[f]quinolin-3-one]	–	–
20%	71%	–	CN(C)CCN1C(=O)c2cccc3c(-c4ccc5c(c4)CC[C@H]4N(C)C(=O)CC[C@]54C)ccc(c23)C1=O [Example 224, (+)-(4aR)-(10bR)-4-methyl-8-(2-(2-dimethylaminoethyl)-1H-benzo<de>isoquinolin-6-yl-1,3-(2H)dione)-10b-methyl-1,2,3,4,4a,5,6,10b-octahydrobenzo[f]quinolin-3-one]	–	–
32%	47%	–	CCCN(CCC)[C@@H]1Cc2cc(-c3ccc4c(c3)CC[C@H]3N(C)C(=O)CC[C@]43C)cc3c2[C@@H](C1)CN3C(=O)c1ccccc1 [Example 225, (+)-(4aR)-(10bR)-4-methyl-8-(2aR,4S-1-benzoyl-4-dipropylamino-2,2a,3,4-tetrahydrobenz[cd]-1H-indol-7-yl)-10b-methyl-1,2,3,4,4a,5,6,10b-octahydrobenzo[f]quinolin-3-one]	–	–
8%	16%	–	CN1C(=O)CC[C@]2(C)c3ccc(-c4cc5c6c(c4)N(C(=O)c4ccccc4)C[C@@H]6C[C@H](N)C5)cc3CC[C@@H]12 [Example 226, (+)-(4aR)-(10bR)-4-methyl-8-(2aR,4S-1-benzoyl-4-amino-2,2a,3,4-tetrahydrobenz[cd]-1H-indol-7-yl)-10b-methyl-1,2,3,4,4a,5,6,10b-octahydrobenzo[f]quinolin-3-one]	–	–
